The supplement of paper PMC10011410

Assays:
[1] = test system: U-2 OS; test: AUC of culture confluence over time (live-cell imaging) (AUC (confluence % x time)); higher = more confluent culture (less growth inhibition)
Method: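 Live-cell Incucyte imaging of U-2 OS cells in F-12K medium. Compounds were tested mostly at 5, 10 and 20 uM, and cells were imaged every 4 h for up to 60 h. Value is the area under the curve of phase-contrast confluence over time.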

[2] = test system: U-2 OS; test: relative cell count vs DMSO (cell painting) (fraction of DMSO control); higher = more cells remaining (less cytotoxic); details: 24 h
Method: (§1)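 Cell painting in U-2 OS cells (384-well, about 1,500 cells per well), compound exposure 24 h, usually six 2-fold concentrations from 20 to 0.625 uM (some compounds higher or lower). Relative cell count is the cell number per well relative to DMSO wells. Activity score is the Mahalanobis distance of the morphological profile from DMSO control wells. Mean of four technical replicate plates.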

[3] = test system: U-2 OS; test: cell painting activity score (Mahalanobis distance from DMSO wells); higher = stronger morphological phenotype; details: 24 h
Method: as §1

Structure (SMILES) | AUC of culture confluence over time ([1]; 5 µM) | AUC of culture confluence over time ([1]; 10 µM) | AUC of culture confluence over time ([1]; 20 µM) | relative cell count ([2]; 0.625 µM) | relative cell count ([2]; 1.25 µM) | relative cell count ([2]; 2.5 µM) | relative cell count ([2]; 5 µM) | relative cell count ([2]; 10 µM) | relative cell count ([2]; 20 µM) | cell painting activity score ([3]; 0.625 µM) | cell painting activity score ([3]; 1.25 µM) | cell painting activity score ([3]; 2.5 µM) | cell painting activity score ([3]; 5 µM) | cell painting activity score ([3]; 10 µM) | cell painting activity score ([3]; 20 µM)
C=C1[C@@H](C)[C@H]2[C@H](Cc3ccccc3)NC(=O)[C@]23[C@H](OC(C)=O)/C=C/[C@@](C)(O)C(=O)[C@@H](C)C/C=C/[C@H]3[C@@H]1O | 24.3 | 26 | 27.2 | 0.575 | 0.517 | 0.557 | 0.623 | 0.562 | 0.494 | 14.5 | 15.6 | 16.1 | 17.4 | 18.8 | 19.2
Cc1csc(=NC2CCCCC2)n1/N=C/c1ccc(O)c(O)c1O | 49.7 | 53.9 | 40.5 | 1.01 | 1.01 | 0.985 | 1 | 1.02 | 0.405 | 6.78 | 7.67 | 6 | 5.67 | 5.75 | 7.13
COc1ccc(/C=C/C(=O)O[C@@H]2[C@H](O[C@@H]3O[C@@H](C)[C@H](O)[C@@H](O)[C@H]3O)[C@@H](O[C@@H]3O[C@@H](C)[C@H](O[C@@H]4OC[C@@H](O[C@@H]5O[C@H](CO)[C@H](O)[C@H](O)[C@H]5O)[C@H](O)[C@H]4O)[C@@H](O)[C@H]3O)[C@H](OC(=O)[C@]34CCC(C)(C)C[C@H]3C3=CC[C@@H]5[C@@]6(C)C[C@H](O)[C@H](O[C@@H]7O[C@H](CO)[C@@H](O)[C@H](O)[C@H]7O)[C@@](C)(C(=O)O)[C@@H]6CC[C@@]5(C)[C@]3(CO)CC4)O[C@@H]2C)cc1 | 43.7 | 44.3 | 14.2 | 1.07 | 0.975 | 0.938 | 0.66 | 0.252 | 0.035 | 8.17 | 11.2 | 12.4 | 9.11 | 10.1 | 37.6
CCN(CC)Cc1ccc2cc(COC(=O)Nc3ccc(C(=O)NO)cc3)ccc2c1.Cl | 16.5 | 20 | 18.5 | 0.781 | 0.654 | 0.491 | 0.424 | 0.403 | 0.373 | 16.1 | 14.9 | 15 | 15.6 | 16 | 16.9
S=P(N1CC1)(N1CC1)N1CC1 | 39.2 | 31 | 32.9 | 1.06 | 0.967 | 0.939 | 0.904 | 0.942 | 0.856 | 3.3 | 3.39 | 3.97 | 4.44 | 5.38 | 7.45
Nc1ncn([C@H]2C[C@H](O)[C@@H](CO)O2)c(=O)n1 | 45.9 | 35.4 | 37.9 | 0.973 | 0.985 | 0.966 | 0.935 | 0.915 | 0.918 | 6.05 | 6.95 | 6.26 | 6.61 | 5.82 | 5.8
N[C@@H](Cc1ccc(N(CCCl)CCCl)cc1)C(=O)O | 34.2 | 33.1 | 30.4 | 0.959 | 0.939 | 0.879 | 0.883 | 0.733 | 0.723 | 3.56 | 5.26 | 5.71 | 6.03 | 8.71 | 9.32
Cc1nc(Nc2ncc(C(=O)Nc3c(C)cccc3Cl)s2)cc(N2CCN(CCO)CC2)n1 | 32.5 | 29 | 22.6 | 0.973 | 0.883 | 0.89 | 0.894 | 0.806 | 0.839 | 11.4 | 12.6 | 12.3 | 12.2 | 13.1 | 12.8
COC(=O)[C@@]12OC[C@]34[C@H]([C@@H](O)[C@@H]1O)[C@@]1(C)CC(=O)C(O)=C(C)[C@@H]1C[C@H]3OC(=O)[C@H](OC(=O)CC(C)C)[C@@H]24 | 14.4 | 12.2 | 13.9 | 0.469 | 0.475 | 0.461 | 0.47 | 0.397 | 0.365 | 15.1 | 15.9 | 16.9 | 17.5 | 18.1 | 17.9
C#CC[C@H](c1nc2cc(Cl)ccc2c(=O)n1Nc1ccccc1)N(CCCN)C(=O)c1cccc(Cl)c1F | 26.8 | 13.2 | 10.4 | 0.999 | 0.984 | 0.903 | 0.401 | 0.198 | 0.0211 | 4.72 | 4.61 | 4.15 | 10.3 | 12.9 | 26.1
CC(C)(C)C(=O)OCOc1cccc2ccccc12 | 45.5 | 44.2 | 46.3 | 1.01 | 0.983 | 0.997 | 0.97 | 0.974 | 1.01 | 4.69 | 4.3 | 6.34 | 5.83 | 8.37 | 7.3
O=NN(CCCl)C(=O)NC1CCCCC1 | 46.1 | 48.4 | 47.4 | 0.975 | 0.937 | 0.985 | 0.988 | 0.963 | 0.875 | 3.56 | 4.22 | 4.72 | 4.42 | 4.76 | 7.36
C[C@@]12C(=O)OC(=O)[C@]1(C)[C@H]1CC[C@@H]2O1 | 32.8 | 33.9 | 19.5 | 0.887 | 0.831 | 0.869 | 0.887 | 0.918 | 0.792 | 13.8 | 14.1 | 13.8 | 13.3 | 13.5 | 9.67
O=c1c(O)c(-c2ccc(O)c(O)c2)oc2cc(O)cc(O)c12 | 46.5 | 53.6 | 50.6 | 0.954 | 0.982 | 0.939 | 0.962 | 0.892 | 0.814 | 4.42 | 3.56 | 5.15 | 6.18 | 8.67 | 12.4
CCCCc1c(-c2ccc(OC)cc2)[nH]c2nccnc12 | 53.2 | 47.6 | 52.7 | 1.01 | 0.952 | 0.968 | 0.949 | 0.927 | 0.624 | 4.99 | 3.58 | 6.25 | 6.12 | 8.25 | 8.09
C[C@@H]1O[C@@H](O[C@H]2[C@H](O[C@H]3CC[C@@]4(C)[C@@H](CC[C@]5(C)[C@@H]4CC=C4[C@@H]6CC(C)(C)CC[C@]6(C(=O)O[C@@H]6O[C@H](CO[C@@H]7O[C@H](CO)[C@@H](O[C@@H]8O[C@@H](C)[C@H](O)[C@@H](O)[C@H]8O)[C@H](O)[C@H]7O)[C@@H](O)[C@H](O)[C@H]6O)CC[C@]45C)[C@]3(C)CO)OC[C@H](O)[C@@H]2O)[C@H](O)[C@H](O)[C@H]1O | 45.1 | 48.4 | 45.2 | 0.985 | 0.966 | 0.955 | 1 | 1.01 | 1.04 | 3.46 | 5.62 | 3.28 | 3.16 | 3.23 | 2.9
COc1ccc2c(c[n+](C)c3c4cc5c(cc4ccc23)OCO5)c1OC | 46.8 | 41 | 11.4 | 0.994 | 1.03 | 1.01 | 0.982 | 0.695 | 0.0282 | 5.1 | 3.72 | 14.6 | 14.5 | 13.8 | 16.2
Cc1ccc(C(=O)N(CCCN)[C@@H](c2nc3cc(Cl)ccc3c(=O)n2Cc2ccccc2)C(C)C)cc1 | 18.6 | 21.1 | 9.6 | 0.22 | 0.209 | 0.227 | 0.225 | 0.0173 | 0.0529 | 11.9 | 10.6 | 13.1 | 13.9 | 28.6 | 17.6
